# According to PMC5908784, “Extracellular loops 2 and 3 of the calcitonin receptor selectively modify agonist binding and efficacy” (Biochemical Pharmacology, 2018):
# Numbering of substitutions follows the chain as printed. Where a SMILES comes first, the peptide text is derived from it. Bridges are numbered along the chain shown (N, C = ends).
# Key:
# Assay in all cases: Heterologous whole cell competition binding
# Settings in all cases: heterologous competition of 125I-sCT(8-32), whole cells, mean ± S.E.M., SEM
# hCTR Y284A = target: T1, hCTR Y284A (Homo sapiens, UniProt P30988, Y284A)
# T1 construct: expressed in transfected cells
# T1 sequence (P30988 25-474 Y284A): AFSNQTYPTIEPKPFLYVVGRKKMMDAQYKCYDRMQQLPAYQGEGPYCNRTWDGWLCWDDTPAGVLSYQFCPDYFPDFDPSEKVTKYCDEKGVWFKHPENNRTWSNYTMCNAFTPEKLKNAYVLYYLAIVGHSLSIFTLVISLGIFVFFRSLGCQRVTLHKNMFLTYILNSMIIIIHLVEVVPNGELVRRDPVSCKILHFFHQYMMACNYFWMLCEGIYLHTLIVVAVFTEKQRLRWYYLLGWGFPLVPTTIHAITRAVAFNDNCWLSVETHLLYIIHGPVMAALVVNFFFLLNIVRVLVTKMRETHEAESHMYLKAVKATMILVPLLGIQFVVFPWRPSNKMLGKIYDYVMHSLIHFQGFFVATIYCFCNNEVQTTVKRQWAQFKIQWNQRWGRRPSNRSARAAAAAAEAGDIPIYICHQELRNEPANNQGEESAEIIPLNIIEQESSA
# Outline: (§1)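 Overnight competition on intact cells; free ligand washed off; gamma counting. pKi via Cheng-Prusoff correction for radioligand occupancy.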
# hCTR P363A = target: T2, hCTR P363A (Homo sapiens, UniProt P30988, P363A)
# T2 construct: expressed in transfected cells
# T2 sequence (P30988 25-474 P363A): T1 sequence (P30988 25-474 Y284A) with A260Y, P339A
# Outline: as §1
# hCTR I279A = target: T3, hCTR I279A (Homo sapiens, UniProt P30988, I279A)
# T3 construct: expressed in transfected cells
# T3 sequence (P30988 25-474 I279A): T1 sequence (P30988 25-474 Y284A) with I255A, A260Y
# Outline: as §1
# hCTR L298A = target: T4, hCTR L298A (Homo sapiens, UniProt P30988, L298A)
# T4 construct: c-Myc (N); expressed in transfected cells
# T4 sequence (P30988 25-474 L298A): T1 sequence (P30988 25-474 Y284A) with A260Y, L274A
# Outline: as §1
# hCTR R362A = target: T5, hCTR R362A (Homo sapiens, UniProt P30988, R362A)
# T5 construct: expressed in transfected cells
# T5 sequence (P30988 25-474 R362A): T1 sequence (P30988 25-474 Y284A) with A260Y, R338A
# Outline: as §1
structure (smiles),measurement,setting,value
CSCC[C@H](NC(=O)CNC(=O)[C@H](CO)NC(=O)[C@H](Cc1ccccc1)NC(=O)[C@H](CCCNC(=N)N)NC(=O)[C@H](Cc1c[nH]cn1)NC(=O)[C@H](Cc1ccccc1)NC(=O)[C@H](CC(N)=O)NC(=O)[C@H](CC(N)=O)NC(=O)[C@H](CC(C)C)NC(=O)[C@H](CC(N)=O)NC(=O)[C@H](CCCNC(=N)N)NC(=O)[C@H](Cc1c[nH]c2ccccc12)NC(=O)[C@H](Cc1ccc(O)cc1)NC(=O)[C@H](C)NC(=O)[C@H](CO)NC(=O)[C@H](CC(C)C)NC(=O)[C@@H](NC(=O)[C@@H]1CSSC[C@H](N)C(=O)N[C@@H](CO)C(=O)N[C@@H](CC(N)=O)C(=O)N[C@@H](CC(C)C)C(=O)N[C@@H](CO)C(=O)N[C@@H]([C@@H](C)O)C(=O)N1)C(C)C)C(=O)NCC(=O)N[C@@H](Cc1ccccc1)C(=O)NCC(=O)N1CCC[C@H]1C(=O)N[C@@H](CCC(=O)O)C(=O)N[C@H](C(=O)N1CCC[C@H]1C(N)=O)[C@@H](C)O [pCT] (H-CSNLSTCVLSAYWRNLNNFHRFSGMGFGPETP-NH2; disulfide 1-7),Ki,hCTR Y284A,14.5 nM
same,Ki,hCTR P363A,55 nM
same,Ki,hCTR I279A,14.8 nM
same,Ki,hCTR L298A,20.4 nM
same,Ki,hCTR R362A,46.8 nM
